Tests used:
[1] = system: fibrocystin cleavage in mIMCD3/FC cells; experiment: Immunoblot (anti-V5) of fibrocystin proteolytic fragments in mIMCD3/FC cells; assay type: cell-based, human; settings: FIG. 4A
Description: Cell Culture, Transfection and Generation of Stable Cell Lines—mIMCD-3 cells were plated at a density of 500,000 cells/100 mm dish, and 24 hours and 48 hours later the cells were transfected with 2 μg of pFC-V5 using Effectene (Qiagen, Valencia, Calif.). Cells were incubated for an additional 72 hours and lysed in 100 μl buffer containing Tris-buffered saline, 0.5% Triton X-100, protease inhibitor cocktail (Hoffmann-La Roche Inc., Indianapolis, Ind.). Twenty μl of the lysates were analyzed by SDS-PAGE, and immunoblot analysis was performed using HRP-conjugated anti-V5 as described previously (Hiesberger, 2005). mIMCD3/FC and mIMCD3/EGFP cell lines with inducible expression of fibrocystin and EGFP, respectively, were produced by transfecting mIMCD-3 cells with 1.5 μg pSwitch and either 1.5 μg pGeneFC or 1.5 μg pGeneEGFP. Stable transfectants were isolated after 14 days of growth in media containing hygromycin (350 μg/ml) and zeocin (300 μg/ml). To test for inducible expression, cells derived from individual clones were treated with mifepristone (10 nM) for 48 h or left untreated, and proteins were analyzed by immunoblotting using HRP-conjugated anti-FLAG. HEK-293 cells stably transfected with the muscarinic acetylcholine receptor M3 were a generous gift from Trevor Shuttleworth (University of Rochester Medical center) (Yang, 1995).
To further investigate the proteolytic cleavage of fibrocystin, mIMCD3/FC cells were generated, in which the expression of recombinant human fibrocystin can be induced by treatment with mifepristone.
FIG. 4 A is an image of a gel illustrating mIMCD3/FC cells were grown for 4 days and incubated with 0.1 μM thapsigargin (lane 2), 5 mM caffeine (lane 3), 75 μM dantrolene (lane 5), 200 μM ruthenium red (lane 7), or no additions (lanes 1, 4 and 6). After 2 hours, media were replaced with media lacking serum but containing the same supplements, and, in addition, 10 nM mifeprisone. Cell lysates were prepared after 24 hours and analyzed by immunoblotting using anti-V5 antibody. FIG. 4B is a graph of mIMCD-3 cells were transfected with 0.2 μg pG5-luc and either 0.2 μg pFC-GV or 0.2 μg pLDLR-GV. After 24 hours, cells were incubated in serum-free media in the presence or absence of 75 μM dantrolene. Relative luciferase activity was determined after 48 h. Data presented are mean ±SE of three separate transfections. The fibrocystin/Gal4-VP16 fusion protein is shown schematically below. […] Cells were lysed after 16 h, and extracts were analyzed by immunoblotting using anti-V5 antibody. […] Luciferase activity was measured after 12 hours. […] Cells were lysed after 16 hours, and extracts were analyzed by immunoblotting using anti-V5 antibody. […]

[2] = system: fibrocystin cleavage in mIMCD-3 cells; experiment: Luciferase reporter assay of fibrocystin cleavage (pFC-GV / pG5-luc) in mIMCD-3 cells; assay type: cell-based, human; settings: 75 μM dantrolene, serum-free media, luciferase after 48 h, FIG. 4B
Description: (§1) Reporter Gene Assays—mIMCD-3 cells, HEK-293 cells, or HeLa cells were plated in 6-well dishes (3×10^5 cells/well) and cotransfected with 0.05 μg phRL-TK(Int−) encoding Renilla luciferase (Promega, Madison, Wis.), 0.1 μg Photinus luciferase reporter plasmids, and 0.01-0.3 μg effector plasmids. Luciferase assays were performed as described previously (Hiesberger, 2004). Relative luciferase activity was calculated as the ratio of Photinus and Renilla luciferase.
FIG. 4 A is an image of a gel illustrating mIMCD3/FC cells were grown for 4 days and incubated with 0.1 μM thapsigargin (lane 2), 5 mM caffeine (lane 3), 75 μM dantrolene (lane 5), 200 μM ruthenium red (lane 7), or no additions (lanes 1, 4 and 6). […] Cell lysates were prepared after 24 hours and analyzed by immunoblotting using anti-V5 antibody. […] Relative luciferase activity was determined after 48 h. […] Cells were lysed after 16 h, and extracts were analyzed by immunoblotting using anti-V5 antibody. […] Luciferase activity was measured after 12 hours. […] Cells were lysed after 16 hours, and extracts were analyzed by immunoblotting using anti-V5 antibody.
To quantitatively measure fibrocystin cleavage, a luciferase assay was developed that was similar to the ones employed to quantify the proteolytic cleavage of amyloid precursor protein (APP) and low density lipoprotein receptor related protein-1 (LRP1) (Cao, 2001; May, 2003). […]

[3] = system: fibrocystin cleavage in HEK-293(m3) cells
Description: FIG. 4 A is an image of a gel illustrating mIMCD3/FC cells were grown for 4 days and incubated with 0.1 μM thapsigargin (lane 2), 5 mM caffeine (lane 3), 75 μM dantrolene (lane 5), 200 μM ruthenium red (lane 7), or no additions (lanes 1, 4 and 6). After 2 hours, media were replaced with media lacking serum but containing the same supplements, and, in addition, 10 nM mifeprisone. Cell lysates were prepared after 24 hours and analyzed by immunoblotting using anti-V5 antibody. FIG. 4B is a graph of mIMCD-3 cells were transfected with 0.2 μg pG5-luc and either 0.2 μg pFC-GV or 0.2 μg pLDLR-GV. After 24 hours, cells were incubated in serum-free media in the presence or absence of 75 μM dantrolene. Relative luciferase activity was determined after 48 h. Data presented are mean ±SE of three separate transfections. The fibrocystin/Gal4-VP16 fusion protein is shown schematically below. Shaded box indicates the transmembrane segment; filled boxes indicate the N-terminal signal sequence and the C-terminal Gal4-VP16 fusion protein. […] Cells were lysed after 16 h, and extracts were analyzed by immunoblotting using anti-V5 antibody. […] Luciferase activity was measured after 12 hours. […] Cells were lysed after 16 hours, and extracts were analyzed by immunoblotting using anti-V5 antibody.

[4] = system: fibrocystin cleavage in HEK-293 cells; experiment: Immunoblot (anti-V5) of fibrocystin proteolysis in HEK-293 cells transfected with pFC-V5; assay type: cell-based, human
Description: (§2) FIG. 4 A is an image of a gel illustrating mIMCD3/FC cells were grown for 4 days and incubated with 0.1 μM thapsigargin (lane 2), 5 mM caffeine (lane 3), 75 μM dantrolene (lane 5), 200 μM ruthenium red (lane 7), or no additions (lanes 1, 4 and 6). After 2 hours, media were replaced with media lacking serum but containing the same supplements, and, in addition, 10 nM mifeprisone. Cell lysates were prepared after 24 hours and analyzed by immunoblotting using anti-V5 antibody. FIG. 4B is a graph of mIMCD-3 cells were transfected with 0.2 μg pG5-luc and either 0.2 μg pFC-GV or 0.2 μg pLDLR-GV. After 24 hours, cells were incubated in serum-free media in the presence or absence of 75 μM dantrolene. Relative luciferase activity was determined after 48 h. Data presented are mean ±SE of three separate transfections. The fibrocystin/Gal4-VP16 fusion protein is shown schematically below. Shaded box indicates the transmembrane segment; filled boxes indicate the N-terminal signal sequence and the C-terminal Gal4-VP16 fusion protein. FIG. 4C is an image of a gel illustrating HEK-293 cells transfected with 6 μg pFC-V5, and 8 hours later incubated in serum-free media containing 1-8 mM caffeine, 0.5 μM calphostin, or no additions. Cells were lysed after 16 h, and extracts were analyzed by immunoblotting using anti-V5 antibody. FIG. 4D is a graph of HEK-293 cells transfected with 0.2 μg pFC-GV and 0.2 μg pG5-luc. After 24 hours, cells were incubated in serum-free media containing 5 mM caffeine or no additions. Luciferase activity was measured after 12 hours. Data presented are mean ±SE of three separate transfections. FIG. 4E is an image of a gel illustrating HEK-293 cells stably expressing the m3 muscarinic receptor (lanes 1-4) and untransfected HEK-293 cells (lanes 5-8) were transfected with 6 μg pFC-V5. […] Cells were lysed after 16 hours, and extracts were analyzed by immunoblotting using anti-V5 antibody.
FIG. 5A is an image of a gel that illustrates HEK-293 cells were transfected with 6 μg pFC-V5. […] Fourteen hours later, cellular proteins were extracted and analyzed by immunoblotting using anti-V5 antibody. FIG. 5B is an image of a gel mIMCD3/FC cells were grown for 4 days, and expression of fibrocystin was induced by addition of 10 nM mifepristone. After 24 hours, media were supplemented with 0.1, 0.5, or 1 μM calphostin C. Thirty hours later, cells were harvested, and proteins were analyzed by immunoblotting using anti-V5 antibody. FIG. 5C is an image of a gel illustrating HEK-293 cells were transfected with 3 μg pFC-V5 and either 3 μg of the empty vector pEF-neo (lanes 1 and 3) or 3 μg pEF-PKCαA/E (lanes 2 and 4). After 12 hours media were changed to media containing 10% FCS (lanes 1 and 2) or 0.2% BSA (lanes 3 and 4). Forty-eight hours later, cells were harvested, and proteins were subjected to immunoblotting using anti-V5 antibody. FIG. 5D is a plot illustrating HEK-293 cells transfected with 0.2 μg pG5-luc and 0.2 μg pFC-GV, pLDLR-GV and/or pEF-PKCαA/E. After 16 hours, media were changed to serum-free media containing 100 nM PMA or 500 μM Br-cAMP. Twenty-four hours later, cells were harvested, and relative luciferase activities were determined. Data are the mean ±SE of three independent transfections.

[5] = system: fibrocystin cleavage in HEK-293 cells; experiment: Luciferase reporter assay of fibrocystin cleavage (pFC-GV / pG5-luc) in HEK-293 cells; assay type: cell-based, human; settings: 5 mM caffeine versus vehicle, HEK-293, 12 hours, FIG. 4D
Description: as §1, §2
To quantitatively measure fibrocystin cleavage, a luciferase assay was developed that was similar to the ones employed to quantify the proteolytic cleavage of amyloid precursor protein (APP) and low density lipoprotein receptor related protein-1 (LRP1) (Cao, 2001; May, 2003). A plasmid (FC-GV) encoding the synthetic transcription factor Gal4-VP16 fused to the C-terminus of fibrocystin was generated. Proteolytic cleavage of the fibrocystin fusion protein releases Gal4-VP16, which translocates to the nucleus and activates a Gal4-responsive luciferase reporter gene (pG5-luc). Therefore, luciferase expression correlates with fibrocystin cleavage.
To quantify fibrocystin proteolysis in response to intracellular Ca^2+ release, the luciferase reporter assay was employed. HEK-293 cells were cotransfected with the plasmids pFC-GV and pG5-luc and incubated with either 5 mM caffeine or vehicle (as a control).
FIG. 5A is an image of a gel that illustrates HEK-293 cells were transfected with 6 μg pFC-V5.

## C/C=C(/C)C(=O)O[C@H]1C(C)=C2[C@H]([C@@H]1OC(=O)CCCCCCC)[C@@](C)(OC(C)=O)C[C@H](OC(=O)CCC)[C@@]1(O)[C@H]2OC(=O)[C@@]1(C)O [thapsigargin]
[1]; pretreatment with 0.1 μM thapsigargin, lysates after 24 hours
  generation of the FCA fragment: abolished

## N.N.N.N.N.N.N.N.N.N.N.N.N.N.[Cl-].[Cl-].[Cl-].[Cl-].[Cl-].[Cl-].[O-2].[O-2].[Ru+3].[Ru+3].[Ru+4] [ruthenium red]
[1]; pretreatment with 200 μM ruthenium red
  formation of FCA: abolished

## O=C1CN(/N=C/c2ccc(-c3ccc([N+](=O)[O-])cc3)o2)C(O)=N1 [dantrolene]
[1]; 75 μM dantrolene
  formation of FCA: abolished
[2]
  increase in luciferase activity (FC-GV versus LDLR-GV): abolished

## Cn1c(=O)c2c(ncn2C)n(C)c1=O [caffeine]
[3]
  fibrocystin proteolysis: triggered fibrocystin proteolysis
[1]; pretreatment with 5 mM caffeine, lysates after 24 hours
  generation of FCA: prevented
[4]; 5 mM caffeine, untransfected HEK-293 cells, 16 hours, FIG. 4E
  fibrocystin proteolysis: triggered fibrocystin proteolysis
[4]; 1-8 mM caffeine, serum-free media, HEK-293, lysed after 16 h, FIG. 4C
  proteolysis of fibrocystin: induced dose-dependent proteolysis
[5]
  increase of luciferase activity: 10 fold
